{"source": "ChEMBL document CHEMBL5053498", "about": "“Acremonamide, a Cyclic Pentadepsipeptide with Wound-Healing Properties Isolated from a Marine-Derived Fungus of the Genus Acremonium” (J Nat Prod, 2021)", "key": {"NIH3T3 [1]": {"system": "NIH3T3", "test": "Induction of wound healing in mouse NIH3T3 cells assessed as increase in COL1A2 mRNA level at 12.5 uM by RT-PCR analysis", "type": "functional, cell-based"}, "[2]": {"test": "Induction of cell invasion in mouse NIH3T3 cells at 12.5 uM measured after 24 hrs by transwell assay", "type": "functional"}, "[3]": {"test": "Induction of cell invasion in human HacaT cells at 12.5 uM measured after 24 hrs by transwell assay", "type": "functional"}, "HaCaT [4]": {"system": "HaCaT", "test": "Induction of wound healing in human HacaT cells assessed as increase in COL1A2 mRNA level at 12.5 uM by RT-PCR analysis", "type": "functional, cell-based"}, "HaCaT [5]": {"system": "HaCaT", "test": "Induction of wound healing in human HacaT cells assessed as increase in ACTC1 mRNA level at 12.5 uM by RT-PCR analysis", "type": "functional, cell-based"}, "Caco-2": {"system": "Caco-2", "test": "Cytotoxicity against human Caco-2 cells assessed as cell viability at 3.12 to 50 uM measured after 48 hrs by MTT assay", "type": "functional, cell-based", "conditions": "dose 3.12-50 µM"}, "Mus musculus": {"species_on_record": "Mus musculus", "test": "Induction of wound healing in BALB/c mouse assessed as reduction in wound area after 6 days", "type": "functional, organism-based", "conditions": "time 6.0 day"}, "NIH3T3 [6]": {"system": "NIH3T3", "test": "Induction of cell migration in mouse NIH3T3 cells at 12.5 uM measured after 24 hrs by transwell assay", "type": "functional"}, "HaCaT [7]": {"system": "HaCaT", "test": "Induction of cell migration in human HacaT cells at 12.5 uM measured after 24 hrs by transwell assay", "type": "functional"}, "NIH3T3 [8]": {"system": "NIH3T3", "test": "Cytotoxicity against mouse NIH3T3 cells assessed as cell viability at 3.12 to 50 uM measured after 48 hrs by MTT assay", "type": "cell-based", "conditions": "nih3t3, 48 h, dose 3.12-50 µM"}, "NIH3T3 [9]": {"system": "NIH3T3", "test": "Induction of wound healing in mouse NIH3T3 cells assessed as increase in ACTC1 mRNA level at 12.5 uM by RT-PCR analysis", "type": "functional, cell-based"}, "HaCaT [10]": {"system": "HaCaT", "test": "Cytotoxicity against human HacaT cells assessed as cell viability at 3.12 to 50 uM measured after 48 hrs by MTT assay", "type": "cell-based", "conditions": "dose 3.12-50 µM"}}, "note": "The source made the active and inactive calls. No cut-off for these calls is given here.", "data": [{"smiles": "CC(C)[C@@H]1NC(=O)[C@@H](C(C)C)OC(=O)[C@H](C)N(C)C(=O)[C@H](Cc2ccccc2)NC(=O)[C@H](Cc2ccccc2)N(C)C1=O", "values": [{"measurement": "Activity", "setting": "NIH3T3 [1]", "value": "Active"}, {"measurement": "Activity", "setting": "[2]", "value": 50, "unit": "%"}, {"measurement": "Activity", "setting": "[3]", "value": 50, "unit": "%"}, {"measurement": "Activity", "setting": "HaCaT [4]", "value": "Active"}, {"measurement": "Activity", "setting": "HaCaT [5]", "value": "Active"}, {"measurement": "Activity", "setting": "Caco-2", "value": "inactive"}, {"measurement": "Activity", "setting": "Mus musculus", "value": "Active"}, {"measurement": "Activity", "setting": "NIH3T3 [6]", "value": 50, "unit": "%"}, {"measurement": "Activity", "setting": "HaCaT [7]", "value": 50, "unit": "%"}, {"measurement": "Activity", "setting": "NIH3T3 [8]", "value": "Non-Toxic"}, {"measurement": "Activity", "setting": "NIH3T3 [9]", "value": "Active"}, {"measurement": "Activity", "setting": "HaCaT [10]", "value": "Non-Toxic"}]}]}
